Consider 2 compounds from US20260137786A1, “FLUORESCENT COMPOUNDS FOR SYNERGISTIC PHOTODYNAMIC AND PHOTOTHERMAL CANCER THERANOSTIC” (The Hong Kong University of Science and Technology, priority 2022, published 2026).

Molecules are shown by their SMILES.

Common to all, as to type: physicochemical
The nature of data set [1]: Absorption and emission (PL) spectra in THF solution. As to conditions: for emission spectra peak / maximum absorption: 10 μM. The protocol:
(§1) First, the absorption and emission spectra were recorded. From FIG. 3a, the maximum absorptions of TPE-TBT and TPA-TBT are located at 582 and 620 nm, respectively, which display a redshift because of the enhancement of D-A strength from TPE-TBT to TPA-TBT. In addition, the emission spectra of the two molecules peaked at 750 and 830 nm, respectively (FIG. 3b). […] The aggregation behaviors of the compounds were then investigated. After adding poor solvent water to the THE solution, the fluorescence intensities of the two luminogens are first reduced at low water fractions (0-50% of water) resulting from the twisted intramolecular charge transfer (TICT) effect.

A short description of data set [2]: Aggregation behaviour (AIE) in THF/water mixtures. Particulars: increasing water fraction. The protocol:
as §1

Data set [3] can be described thus: Fluorescence quantum yield (QY). The protocol:
The fluorescence quantum yield (QY) of the two compounds in the solid state, NPs, THF, and other solvents, were also measured (FIG. 3d).
For better use in cancer theranostic, TPA-TBT and TPE-TBT were fabricated into nanoparticles (NPs) through the nanoprecipitation method using DSPE-PEG2000 as an encapsulation matrix. The hydrodynamic diameters of the two NPs were confirmed by dynamic light scattering (DLS). […] The UV/Vis absorption and fluorescence emission spectra of the two kinds of NPs were also measured, and the results are similar to that in the THF solutions. The fluorescence quantum yield (QY) of the two compounds in the solid state, NPs, THF, and other solvents, were also measured (FIG. 3d). […] ROS production efficiency and PCE were investigated to further explore the phototherapy potential of these AIEgens. We utilized a common ROS indicator Dichlorofluorescin Diace (H2DCF-DA), whose fluorescence can be sensitively activated by ROS, to indicate the overall ROS generation. From FIG. 3e, the fluorescence intensity of H2DCF-DA intensified rapidly in the presence of TPA-TBT NPs. Finally, it reached around 210-fold more robust than the initial intensity after 5 min upon white light irradiation, displaying a much higher ROS production efficiency than TPE-TBT NPs. […] While the PCE of TPE-TBT NPs is only 30%. Considering all the aspects, TPA-TBT NPs show longer fluorescence emission wavelength, higher ROS generation efficiency, and better photothermal efficiency. Therefore, TPA-TBT NPs are more promising for applications in the field of phototheranostic for synergistic cancer therapy.

For `CCCCCCC(CCCC)Cc1cc(-c2ccc(N(c3ccc(OC)cc3)c3ccc(OC)cc3)cc2)sc1-c1c2c(c(-c3sc(-c4ccc(N(c5ccc(OC)cc5)c5ccc(OC)cc5)cc4)cc3CC(CCCC)CCCCCC)c3nn(CC(CC)CCCC)nc13)N=S=N2` (stereo not drawn) [TPA-TBT], in data set [1], the Stokes shift worked out at 210 nm, the emission spectra peak worked out at 830 nm and the maximum absorption came to 620 nm. Further, in data set [2], the AIE intensity enhancement was 3 fold. The “fluorescence quantum yield (QY)” value in data set [3] (THE solution / solution state) came to 5%. Besides, the “fluorescence quantum yield (QY)” value in data set [3] (solid state) was determined as 13%.
Turning to `CCCCCCC(CCCC)Cc1cc(-c2ccc(C(=C(c3ccc(OC)cc3)c3ccc(OC)cc3)c3ccccc3)cc2)sc1-c1c2c(c(-c3sc(-c4ccc(C(=C(c5ccc(OC)cc5)c5ccc(OC)cc5)c5ccccc5)cc4)cc3CC(CCCC)CCCCCC)c3nn(CC(CC)CCCC)nc13)N=S=N2` (stereo not drawn) [TPE-TBT], in data set [1], the emission spectra peak was found to be 750 nm and the maximum absorption came out at 582 nm. Also, the “fluorescence quantum yield (QY)” value in data set [3] (THE solution / solution state) is “remarkable QY”.
